Values quoted from earlier work as cited in US20180256556A1, “METHODS FOR TREATING AN IMPAIRMENT IN GAIT AND/OR BALANCE IN PATIENTS WITH MULTIPLE SCLEROSIS USING AN AMINOPYRIDINE” (Acorda Therapeutics, Inc., priority 2012, published 2018).

Assays:
[1] = test system: patients with multiple sclerosis; settings: p<0.05
potassium channels = settings: high concentration (millimolar)

Q: With `Nc1ccncc1` [4-AP, 4-aminopyridine] as the compound, how does the “Leg strength (LEMMT) relative to placebo” value [1] read?
A: The value was “statistically significantly improved”.

Q: What about the “Potassium channel blocking activity” value (potassium channels) of the same compound?
A: The value was “broad-spectrum blocker of potassium channels”.
